Experimental data from US5556909A, “Substituted 2-arylcarbonyloxymethyl-1,2,5-thiadiazolidin-3-one 1,1-dioxide derivatives and compositions and method of use thereof” (Sanofi Winthrop Inc., priority 1994, dated 1996).
pKi: −log10 of the molar value. Structures can show the parent of a compound that is named as a salt.

Target: T1, human leukocyte elastase (Homo sapiens, UniProt P08246)
T1 sequence (P08246 30-267): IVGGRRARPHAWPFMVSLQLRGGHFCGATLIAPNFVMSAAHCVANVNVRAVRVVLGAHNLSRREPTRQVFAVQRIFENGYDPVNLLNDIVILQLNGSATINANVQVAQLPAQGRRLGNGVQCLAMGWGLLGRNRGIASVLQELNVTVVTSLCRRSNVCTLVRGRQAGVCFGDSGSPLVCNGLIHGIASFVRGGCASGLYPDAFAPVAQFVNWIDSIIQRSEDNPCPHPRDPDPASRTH
Assay: Human leukocyte elastase inhibitory activity (substrate MeOSuc-Ala-Ala-Pro-Val-pNA, microtiter plate progress curves)
Type: biochemical
Details: HLE, pH 7.8, 25° C., 500 mM NaCl
Description: The test compound (inhibitor) is dissolved in DMSO in a vial to produce an inhibitor stock solution which has a concentration in the range of 200-1000 μM. The inhibitor stock solution is diluted (1:4, 1:16 and 1:64) into assay vials (vials 1, 2 and 3 respectively) containing 2.4 mL of buffer solution (50 mM N- [2-hydroxyethyl ] piperazine-N'-[2-ethanesulfonic acid]/NaOH, 500 mM NaCl, pH 7.8 at 25° C.) and DMSO is added so that the total volume in each vial is 3.2 mL. 70 μL, 50 μL, 35 μL and 25 μL of inhibitor from assay vial 1 is placed into the first four wells of a 96-well microtiter plate and each well is made up to 90 μL total volume with the addition of a 25% DMSO/buffer solution. The inhibitor from assay vials 2 and 3 is processed in a similar manner and placed in wells 5-12 respectively to afford a total of 12 different inhibitor concentrations. Four wells (wells 13-16) containing 90 μL of the 25% DMSO/buffer solution but no inhibitor are also run simultaneously with the inhibited wells as a control. 150 μL of substrate solution (prepared by the addition of 500 μL of the human leukocyte elastase (HLE) substrate MeOSuc-Ala-Ala-Pro-Val-pNA (18.7 mM in DMSO) to 19.5 mL of buffer solution) is then added simultaneously into each of the 16 wells and the solution in each well was thoroughly mixed.
The 96-well microtiter plate is placed into a Microplate Reader #89815A spectrophotometer and 110 μL of the enzyme solution (prepared as follows: a mixture of 20 mL of buffer solution and 20 mg of bovine serum albumen is gently vortexed in a scintillation vial and 5 μL HLE stock solution (1 mg/mL dissolved in deionized water) is added) is added simultaneously to each of the 16 wells. Each of the solutions in the wells is throughly mixed and then the time-dependent absorbance data is collected at an absorbance of 410 nm until the assay is complete. It should be noted that although this assay method can be done manually, it is preferred to perform the assay robotically using a Hewlett Packard MicroAssay System Robot.
A plot of the absorbance versus time data thus obtained affords progress curves the final slope of which is equal to the final steady-state velocities (VF). Using the program ENZFITTER (Elsevier software), the progress curves for the four control assays ([I]=0) are fit by linear regression to yield the enzyme reaction velocity values in the absences of inhibitor (Vo) which are averaged to produce a single fixed value. The inhibition constant Ki (nM) is then obtained from a plot of [formula] which affords a linear plot wherein: [formula] and [S] is the concentration of the substrate and Km is the Michaelis constant.
Table II summarizes the results obtained from the testing of representative compounds of the invention for human leukocyte elastase inhibitory activity.

| SMILES | pKi |
| --- | --- |
| CCCC1CCCN2C1C(=O)N(COC(=O)c1c(Cl)cccc1Cl)S2(=O)=O (stereo not shown) [16(j), 2-(2,6-dichlorophenylcarbonyloxymethyl)-4-propyl-1,2,5-thiadiazolo [2,3-a]3,3a, 4,5,6,7-hexahydropyridine-3-one 1,1-dioxide] | 8.02 |
| O=C(OCN1C(=O)C2C3CCC(C3)N2S1(=O)=O)c1c(Cl)cccc1Cl (stereo not shown) [15(i)] | 5.43 |
| CC(C)CCC1C(=O)N(COC(=O)c2c(Cl)ccc(OCCN3CCOCC3)c2Cl)S(=O)(=O)N1C (stereo not shown) [10(b), 2-(2,6-dichloro-3-[2-(4-morpholino)ethoxy]phenyl-carbonyloxymethyl)-4-(3-methylbutyl)-5-methyl-1,2,5-thiadiazolidin-3-one 1,1-dioxide] | 9.70 |
| CN1C(Cc2ccccc2)C(=O)N(COC(=O)c2c(Cl)cccc2Cl)S1(=O)=O (stereo not shown) [11(g), 2-(2,6-dichloro-phenylcarbonyloxymethyl)-4-phenylmethyl-5-methyl-1,2,5-thiadiazolidin-3-one 1,1-dioxide] | 9.21 |
| CC(C)CCC1C(=O)N(COC(=O)c2c(Cl)ccc(OCCN3CCCC3)c2Cl)S(=O)(=O)N1C (stereo not shown) [9(c), 2-(2,6-dichloro-3-(2-pyrrolidinoethoxy)phenylcarbonyloxymethyl)-4-(3-methylbutyl)-5-methyl-1,2,5-thiadiazolidin-3-one 1,1-dioxide hydrochloride] | 9.59 |
| CCCC1NS(=O)(=O)N(COC(=O)c2c(Cl)cccc2Cl)C1=O (stereo not shown) [1(f), 2-(2,6-dichlorophenylcarbonyloxymethyl)-4-propyl-1,2,5-thiadiazolidin-3-one 1,1-dioxide] | 7.92 |
| CCCC1C(=O)N(COC(=O)c2c(Cl)ccc(OCCN3CCOCC3)c2Cl)S(=O)(=O)N1CC (stereo not shown) [Example 12, 2-(2,6-dichloro-3-[2-(4-morpholino]ethoxy]-phenylcarbonyloxymethyl)-4-propyl-5-ethyl-1,2,5-thiadiazolidin-3-one 1,1-dioxide methanesulfonate] | 9.35 |

Results, then the molecule that gave them:

| pKi | SMILES |
| --- | --- |
| 8.36 | CN1C(CCC(C)(C)Cl)C(=O)N(COC(=O)c2c(Cl)cccc2Cl)S1(=O)=O (stereo not shown) [7(h), 2-(2,6-dichlorophenylcarbonyloxymethyl) -4-(3-methyl-3-chlorobutyl)-5-methyl-1,2,5-thiadiazolidin-3-one 1,1-dioxide] |
| 9.96 | CCCC1C(=O)N(COC(=O)c2c(Cl)cccc2Cl)S(=O)(=O)N1C (stereo not shown) [3(i), 2-(2,6-dichlorophenylcarbonyloxy-methyl)-4-propyl-5-methyl-1,2,5-thiadiazolidin-3-one 1,1-dioxide] |
| 10.22 | CC(C)CCC1C(=O)N(COC(=O)c2c(Cl)cccc2Cl)S(=O)(=O)N1C (stereo not shown) [8(i)] |
| 6.46 | CC(C)C1NS(=O)(=O)N(COC(=O)c2c(Cl)cccc2Cl)C1=O (stereo not shown) [2(f), 2-(2,6-dichlorophenylcarbonyloxymethyl)-4-isopropyl-1,2,5-thiadiazolidin-3-one 1,1-dioxide] |
| 7.60 | CC(C)C1C(=O)N(COC(=O)c2c(Cl)cccc2Cl)S(=O)(=O)N1C (stereo not shown) [4(f), 2-(2,6-dichlorophenylcarbonyloxymethyl)-4-isopropyl-5-methyl-1,2,5-thiadiazolidin-3-one 1,1-dioxide] |
| 9.30 | CCCC1C(=O)N(COC(=O)c2c(Cl)cccc2Cl)S(=O)(=O)N1CC (stereo not shown) [5(e), 2-(2,6-dichloro-phenylcarbonyloxymethyl)-4-propyl-5-ethyl-1,2,5-thiadiazolidin-3-one 1,1-dioxide] |
| 7.66 | O=C(OCN1C(=O)C2CCCCN2S1(=O)=O)c1c(Cl)cccc1Cl (stereo not shown) [13(f), 2-(2,6-dichlorophenylcarbonyloxymethyl)-1,2,5-thiadiazolo [2,3-a]3,3a,4,5,6,7-hexahydropyridine-3-one 1:1-dioxide] |
| 6.92 | CCCC1(C)C(=O)N(COC(=O)c2c(Cl)cccc2Cl)S(=O)(=O)N1C (stereo not shown) [6(k), 2-(2,6-dichlorophenylcarbonyloxymethyl)-4-methyl-4-propyl-5-methyl-1,2,5-thiadiazolidin-3-one 1,1-dioxide] |
| 6.77 | O=C(OCN1C(=O)C2CCCN2S1(=O)=O)c1c(Cl)cccc1Cl (stereo not shown) [14(f), 2-(2,6-dichlorophenylcarbonyloxymethyl) tetrahydropyrrolo[1,2-b]-1,2,5-thiadiazol-3(2H)-one 1,1-dioxide] |
